Measurements: US10059717B2, “Urea compounds containing 3,4-dihydropyrimido[4,5-D]pyrimidin-2(1H)-one skeleton as protein kinase inhibitors” (KOREA INSTITUTE OF SCIENCE AND TECHNOLOGY, priority 2016, dated 2018)

Columns and labels:
U937 (N-Ras WT) = experiment: Proliferation inhibitory activity, U937; type: cell-based; settings: Homo sapiens, U-937; U937 (N-Ras WT) cell line; read-out: Proliferation inhibitory efficacy (GI50, μM) U937 (N-Ras WT)
Procedure: (§1) GI50 values were calculated by measuring the proliferation inhibitory efficacy of the compounds of the present invention on mt-NRAS (G12D) Ba/F3, U937 (wt-NRAS) and OCI-AML3 (mt-NRAS) cell lines.

Ba/F3 (N-Ras G12D) = experiment: Proliferation inhibitory activity, Ba/F3; type: cell-based; settings: Mus musculus, BaF3; Ba/F3 (N-Ras G12D) cell line; read-out: Proliferation inhibitory efficacy (GI50, μM) Ba/F3 (N-Ras G12D)
Procedure: as §1

GCK = target: T1, GCK (Homo sapiens, UniProt Q12851); experiment: GCK kinase inhibitory activity; type: biochemical; settings: read-out: Kinase inhibitory efficacy, GI50 GCK
T1 sequence (Q12851 1-820): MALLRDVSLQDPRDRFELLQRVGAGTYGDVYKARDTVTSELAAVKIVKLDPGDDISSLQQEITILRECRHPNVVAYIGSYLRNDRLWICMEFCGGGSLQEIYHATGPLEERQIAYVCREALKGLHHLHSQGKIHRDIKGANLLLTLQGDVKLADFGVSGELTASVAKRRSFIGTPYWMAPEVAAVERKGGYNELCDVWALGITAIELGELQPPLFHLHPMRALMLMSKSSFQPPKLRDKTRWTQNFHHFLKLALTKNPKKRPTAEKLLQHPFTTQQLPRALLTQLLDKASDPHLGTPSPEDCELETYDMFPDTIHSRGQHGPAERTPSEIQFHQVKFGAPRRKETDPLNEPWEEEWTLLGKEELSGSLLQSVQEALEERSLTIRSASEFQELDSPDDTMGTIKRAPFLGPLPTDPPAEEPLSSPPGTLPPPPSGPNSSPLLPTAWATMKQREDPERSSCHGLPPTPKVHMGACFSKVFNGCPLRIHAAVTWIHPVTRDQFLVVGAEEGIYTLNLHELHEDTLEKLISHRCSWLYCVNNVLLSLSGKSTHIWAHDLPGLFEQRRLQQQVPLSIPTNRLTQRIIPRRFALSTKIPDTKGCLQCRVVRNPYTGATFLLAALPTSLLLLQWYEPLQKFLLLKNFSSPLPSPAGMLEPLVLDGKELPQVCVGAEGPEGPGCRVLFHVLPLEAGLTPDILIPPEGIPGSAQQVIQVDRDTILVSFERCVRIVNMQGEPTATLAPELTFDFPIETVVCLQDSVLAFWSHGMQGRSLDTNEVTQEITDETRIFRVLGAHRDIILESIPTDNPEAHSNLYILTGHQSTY
Procedure: (§2) GI50 values were calculated by measuring the inhibitory efficacy of the compounds of the present invention against both GCK and ACK1 kinases.

ACK1 = ACK1 (Homo sapiens, UniProt Q07912); experiment: ACK1 kinase inhibitory activity; type: biochemical; settings: read-out: Kinase inhibitory efficacy, GI50 ACK1
Procedure: as §2

HCK = HCK (Homo sapiens, UniProt P08631); experiment: Kinase panel biochemical assay; settings: 1 μM single concentration, read-out: % residual enzyme activity
HCK, sequence (P08631 whole entry): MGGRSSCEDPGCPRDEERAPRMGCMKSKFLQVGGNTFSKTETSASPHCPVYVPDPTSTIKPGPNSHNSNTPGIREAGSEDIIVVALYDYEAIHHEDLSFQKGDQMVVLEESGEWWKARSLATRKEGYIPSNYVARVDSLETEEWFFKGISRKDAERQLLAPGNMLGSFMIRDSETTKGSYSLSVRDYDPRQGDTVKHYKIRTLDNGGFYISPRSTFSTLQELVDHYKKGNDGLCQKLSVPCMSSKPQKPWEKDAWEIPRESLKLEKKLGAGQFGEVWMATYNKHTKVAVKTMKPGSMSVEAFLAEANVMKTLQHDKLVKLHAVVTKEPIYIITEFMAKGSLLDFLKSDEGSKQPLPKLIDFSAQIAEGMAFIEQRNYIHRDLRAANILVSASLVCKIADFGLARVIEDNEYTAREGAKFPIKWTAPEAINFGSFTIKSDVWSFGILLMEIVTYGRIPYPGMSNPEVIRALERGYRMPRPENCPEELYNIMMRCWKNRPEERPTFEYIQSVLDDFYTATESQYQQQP
Summary of the method: (§3)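 Each panel kinase was treated with the test compound at 1 μM in a biochemical assay, then % residual enzyme activity was calculated.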

TRKA = TRKA (Homo sapiens, UniProt P04629); experiment: Kinase panel biochemical assay; settings: 1 μM single concentration, read-out: % residual enzyme activity
Summary of the method: as §3

TYRO3/SKY = TYRO3/SKY (Homo sapiens, UniProt Q06418); experiment: Kinase panel biochemical assay; settings: 1 μM single concentration, read-out: % residual enzyme activity
Summary of the method: as §3

HPK1/MAP4K1 = HPK1/MAP4K1 (Homo sapiens, UniProt Q92918); experiment: Kinase panel biochemical assay; settings: 1 μM single concentration, read-out: % residual enzyme activity
HPK1/MAP4K1, sequence (Q92918 whole entry): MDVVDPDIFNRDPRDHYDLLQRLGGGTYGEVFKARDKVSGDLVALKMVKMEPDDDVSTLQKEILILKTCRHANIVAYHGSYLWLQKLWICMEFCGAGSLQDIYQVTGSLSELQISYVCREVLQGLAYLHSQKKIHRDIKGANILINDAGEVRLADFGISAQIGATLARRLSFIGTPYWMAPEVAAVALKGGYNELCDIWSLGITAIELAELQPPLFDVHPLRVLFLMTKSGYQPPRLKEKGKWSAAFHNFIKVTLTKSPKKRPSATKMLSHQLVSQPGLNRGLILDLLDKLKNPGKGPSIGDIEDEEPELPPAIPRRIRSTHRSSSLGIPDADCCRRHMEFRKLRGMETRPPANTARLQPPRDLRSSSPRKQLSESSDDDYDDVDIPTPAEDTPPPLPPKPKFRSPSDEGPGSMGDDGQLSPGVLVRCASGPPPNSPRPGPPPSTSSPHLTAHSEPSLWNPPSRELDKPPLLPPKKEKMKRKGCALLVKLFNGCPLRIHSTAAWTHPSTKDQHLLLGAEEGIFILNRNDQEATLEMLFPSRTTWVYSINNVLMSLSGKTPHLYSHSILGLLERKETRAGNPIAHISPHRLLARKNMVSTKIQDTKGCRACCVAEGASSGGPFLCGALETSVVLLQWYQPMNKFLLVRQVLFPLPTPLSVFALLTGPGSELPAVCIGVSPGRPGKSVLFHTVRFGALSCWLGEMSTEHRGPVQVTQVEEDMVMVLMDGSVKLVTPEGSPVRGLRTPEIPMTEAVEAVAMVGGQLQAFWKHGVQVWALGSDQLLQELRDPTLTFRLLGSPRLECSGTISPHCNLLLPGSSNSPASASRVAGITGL
Summary of the method: as §3

EPHB2 = EPHB2 (Homo sapiens, UniProt P29323); experiment: Kinase panel biochemical assay; settings: 1 μM single concentration, read-out: % residual enzyme activity
Summary of the method: as §3

LYN B = LYN B (Homo sapiens, UniProt P07948); experiment: Kinase panel biochemical assay; settings: 1 μM single concentration, read-out: % residual enzyme activity
Summary of the method: as §3

STK32B/YANK2 = STK32B/YANK2 (Homo sapiens, UniProt Q9NY57); experiment: Kinase panel biochemical assay; settings: 1 μM single concentration, read-out: % residual enzyme activity
STK32B/YANK2, sequence (Q9NY57 whole entry): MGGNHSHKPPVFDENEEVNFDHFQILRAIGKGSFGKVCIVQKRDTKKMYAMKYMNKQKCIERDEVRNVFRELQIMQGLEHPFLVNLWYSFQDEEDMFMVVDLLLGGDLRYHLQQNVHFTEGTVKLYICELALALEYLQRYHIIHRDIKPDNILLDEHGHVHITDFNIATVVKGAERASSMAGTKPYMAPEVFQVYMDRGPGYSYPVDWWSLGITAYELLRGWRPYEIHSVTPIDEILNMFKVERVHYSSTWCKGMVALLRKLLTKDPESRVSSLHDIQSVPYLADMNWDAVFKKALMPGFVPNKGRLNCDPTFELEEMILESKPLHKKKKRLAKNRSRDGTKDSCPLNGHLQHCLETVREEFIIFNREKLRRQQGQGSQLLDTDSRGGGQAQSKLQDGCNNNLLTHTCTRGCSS
Summary of the method: as §3

KDRNEGFR2 = KDRNEGFR2 (Homo sapiens, UniProt P35968); experiment: Kinase panel biochemical assay; settings: 1 μM single concentration, read-out: % residual enzyme activity
KDRNEGFR2, sequence (P35968 20-1356): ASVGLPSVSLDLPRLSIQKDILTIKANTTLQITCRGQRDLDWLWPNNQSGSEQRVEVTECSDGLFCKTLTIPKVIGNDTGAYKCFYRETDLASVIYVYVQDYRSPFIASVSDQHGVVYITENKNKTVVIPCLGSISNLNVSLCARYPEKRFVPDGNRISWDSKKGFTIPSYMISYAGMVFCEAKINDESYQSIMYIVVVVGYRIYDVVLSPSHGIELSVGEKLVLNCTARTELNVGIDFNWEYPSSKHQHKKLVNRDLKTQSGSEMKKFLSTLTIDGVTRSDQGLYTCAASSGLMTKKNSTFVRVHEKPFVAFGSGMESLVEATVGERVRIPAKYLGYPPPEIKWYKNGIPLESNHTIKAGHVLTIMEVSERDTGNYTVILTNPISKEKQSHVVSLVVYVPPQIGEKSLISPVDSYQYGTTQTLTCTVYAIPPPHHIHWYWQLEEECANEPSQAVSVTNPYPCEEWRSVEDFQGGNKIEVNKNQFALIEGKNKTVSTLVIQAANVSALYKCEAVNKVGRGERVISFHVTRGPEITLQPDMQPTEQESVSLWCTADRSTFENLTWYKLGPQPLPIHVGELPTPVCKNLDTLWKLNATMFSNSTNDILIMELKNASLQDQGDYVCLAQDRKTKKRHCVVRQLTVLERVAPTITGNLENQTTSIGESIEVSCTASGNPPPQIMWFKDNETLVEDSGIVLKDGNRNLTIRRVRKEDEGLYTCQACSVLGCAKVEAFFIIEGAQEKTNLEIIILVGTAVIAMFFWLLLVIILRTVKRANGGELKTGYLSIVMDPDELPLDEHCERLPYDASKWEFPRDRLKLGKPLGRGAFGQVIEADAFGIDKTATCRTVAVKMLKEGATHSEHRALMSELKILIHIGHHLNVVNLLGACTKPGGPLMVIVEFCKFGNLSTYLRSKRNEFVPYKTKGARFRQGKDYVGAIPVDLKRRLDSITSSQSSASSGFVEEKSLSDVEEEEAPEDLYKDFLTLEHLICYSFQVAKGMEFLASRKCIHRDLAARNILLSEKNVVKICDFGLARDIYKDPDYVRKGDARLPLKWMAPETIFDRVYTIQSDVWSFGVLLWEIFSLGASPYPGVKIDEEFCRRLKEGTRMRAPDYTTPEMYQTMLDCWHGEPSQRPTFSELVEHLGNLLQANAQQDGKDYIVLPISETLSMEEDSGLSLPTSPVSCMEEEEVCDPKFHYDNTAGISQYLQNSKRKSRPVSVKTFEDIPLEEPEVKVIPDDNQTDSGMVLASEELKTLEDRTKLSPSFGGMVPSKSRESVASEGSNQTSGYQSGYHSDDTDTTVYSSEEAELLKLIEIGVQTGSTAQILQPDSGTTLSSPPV
Summary of the method: as §3

MLK2/MAP3K10 = MLK2/MAP3K10 (Homo sapiens, UniProt Q02779); experiment: Kinase panel biochemical assay; settings: 1 μM single concentration, read-out: % residual enzyme activity
Summary of the method: as §3

ZAK/MLTK = ZAK/MLTK (Homo sapiens, UniProt Q9NYL2); experiment: Kinase panel biochemical assay; settings: 1 μM single concentration, read-out: % residual enzyme activity
ZAK/MLTK, sequence (Q9NYL2 whole entry): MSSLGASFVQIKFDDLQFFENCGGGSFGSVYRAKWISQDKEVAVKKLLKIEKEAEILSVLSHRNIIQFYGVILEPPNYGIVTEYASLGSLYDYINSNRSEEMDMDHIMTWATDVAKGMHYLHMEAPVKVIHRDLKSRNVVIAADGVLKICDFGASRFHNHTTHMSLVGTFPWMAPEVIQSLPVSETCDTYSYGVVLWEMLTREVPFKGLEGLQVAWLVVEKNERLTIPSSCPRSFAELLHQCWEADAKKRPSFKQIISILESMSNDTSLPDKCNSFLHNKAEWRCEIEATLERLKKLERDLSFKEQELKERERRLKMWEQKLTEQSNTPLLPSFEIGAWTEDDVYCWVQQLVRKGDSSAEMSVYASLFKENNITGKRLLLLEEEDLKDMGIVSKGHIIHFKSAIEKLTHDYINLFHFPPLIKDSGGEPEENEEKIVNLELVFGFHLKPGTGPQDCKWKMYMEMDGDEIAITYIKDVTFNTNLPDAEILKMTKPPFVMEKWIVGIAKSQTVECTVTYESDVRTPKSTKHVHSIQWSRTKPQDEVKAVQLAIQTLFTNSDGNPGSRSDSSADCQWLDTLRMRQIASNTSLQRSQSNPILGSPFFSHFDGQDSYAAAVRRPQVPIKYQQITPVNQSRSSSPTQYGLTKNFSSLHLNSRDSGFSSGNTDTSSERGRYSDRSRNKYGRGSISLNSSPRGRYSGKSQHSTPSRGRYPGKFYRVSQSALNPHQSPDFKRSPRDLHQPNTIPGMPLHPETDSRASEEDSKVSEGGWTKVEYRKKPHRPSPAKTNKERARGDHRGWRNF
Summary of the method: as §3

MLK1/MAP3K9 = MLK1/MAP3K9 (Homo sapiens, UniProt P80192); experiment: Kinase panel biochemical assay; settings: 1 μM single concentration, read-out: % residual enzyme activity
MLK1/MAP3K9, sequence (P80192 whole entry): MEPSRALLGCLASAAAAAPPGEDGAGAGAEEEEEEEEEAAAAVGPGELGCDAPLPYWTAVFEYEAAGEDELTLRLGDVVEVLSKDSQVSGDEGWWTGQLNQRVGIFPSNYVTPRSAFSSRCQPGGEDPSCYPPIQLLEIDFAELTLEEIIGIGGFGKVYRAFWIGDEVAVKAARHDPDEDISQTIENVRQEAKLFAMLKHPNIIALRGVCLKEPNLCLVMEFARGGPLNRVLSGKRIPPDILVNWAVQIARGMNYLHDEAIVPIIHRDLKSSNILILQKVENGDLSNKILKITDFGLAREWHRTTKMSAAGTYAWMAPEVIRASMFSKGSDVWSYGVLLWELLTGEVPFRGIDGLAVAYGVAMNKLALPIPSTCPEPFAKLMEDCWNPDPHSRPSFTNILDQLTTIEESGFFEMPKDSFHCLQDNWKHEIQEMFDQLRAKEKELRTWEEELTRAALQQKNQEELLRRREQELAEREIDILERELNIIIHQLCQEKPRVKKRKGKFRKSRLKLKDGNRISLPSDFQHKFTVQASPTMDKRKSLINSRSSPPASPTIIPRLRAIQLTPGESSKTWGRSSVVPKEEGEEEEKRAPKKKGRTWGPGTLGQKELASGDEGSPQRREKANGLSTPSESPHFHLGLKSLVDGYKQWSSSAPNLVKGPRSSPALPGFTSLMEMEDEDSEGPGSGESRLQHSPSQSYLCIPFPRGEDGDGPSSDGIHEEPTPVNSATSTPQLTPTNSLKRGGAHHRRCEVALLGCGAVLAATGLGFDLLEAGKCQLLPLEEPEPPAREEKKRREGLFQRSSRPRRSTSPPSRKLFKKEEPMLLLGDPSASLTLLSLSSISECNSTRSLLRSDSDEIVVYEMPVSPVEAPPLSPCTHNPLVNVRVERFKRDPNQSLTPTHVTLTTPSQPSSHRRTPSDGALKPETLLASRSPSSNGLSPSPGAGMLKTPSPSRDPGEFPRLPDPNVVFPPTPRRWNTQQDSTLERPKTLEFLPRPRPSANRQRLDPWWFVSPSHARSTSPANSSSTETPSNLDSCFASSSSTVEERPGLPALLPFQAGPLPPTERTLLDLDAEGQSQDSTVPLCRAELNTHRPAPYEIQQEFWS
Summary of the method: as §3

GI50 (U937 (N-Ras WT)): ≥ 5 µM | GI50 (Ba/F3 (N-Ras G12D)): 0.5 to 3 µM | GI50 (GCK): < 0.03 µM | GI50 (ACK1): < 0.03 µM | remaining activity at 1 µM (HCK): ≤ 30% | remaining activity at 1 µM (TRKA): ≤ 30% | remaining activity at 1 µM (TYRO3/SKY): ≤ 30% | remaining activity at 1 µM (HPK1/MAP4K1): ≤ 30% | remaining activity at 1 µM (EPHB2): ≤ 30% | remaining activity at 1 µM (LYN B): ≤ 30% | remaining activity at 1 µM (STK32B/YANK2): ≤ 30% | remaining activity at 1 µM (KDRNEGFR2): ≤ 30% | remaining activity at 1 µM (MLK2/MAP3K10): ≤ 30% | remaining activity at 1 µM (ZAK/MLTK): ≤ 30% | remaining activity at 1 µM (MLK1/MAP3K9): ≤ 30%
Structure (SMILES): CCN1CCN(C(=O)c2ccc(Nc3ncc4c(n3)N(C)C(=O)N(c3cc(NC(=O)Nc5ccccc5OC)ccc3C)C4)cn2)CC1 [Compound No. 14, 1-(3-(7-((6-(4-ethylpiperazin-1-carbonyl)pyridin-3-yl)amino)-1-methyl-2-oxo-1,4-dihydropyrimido[4,5-d]pyrimidin-3(2H)-yl)-4-methylphenyl)-3-(2-methoxyphenyl)urea]
